# US20240309016A1, “MACROCYCLIC HETEROCYCLE COMPOUNDS AND USE THEREOF” (TAKEDA PHARMACEUTICAL COMPANY LIMITED, priority 2023, published 2024)
# Where two headings read alike, the source gives them in different places.
# Assays:
# [1] = molecular target: T1, human OX2 receptor (Homo sapiens, UniProt O43614); assay: Measurement of orexin type 2 receptor agonist activity (Experimental Example 3; calcium 5 dye, FLIPR Tetra); type: cell-based; conditions: compound at 1 μM; CHO cells expressing human OX2 receptor; DMSO = 0%, 10 nM orexin A (human) = 100%
# T1 construct: expressed in transfected cells
# T1 sequence (O43614 1-444): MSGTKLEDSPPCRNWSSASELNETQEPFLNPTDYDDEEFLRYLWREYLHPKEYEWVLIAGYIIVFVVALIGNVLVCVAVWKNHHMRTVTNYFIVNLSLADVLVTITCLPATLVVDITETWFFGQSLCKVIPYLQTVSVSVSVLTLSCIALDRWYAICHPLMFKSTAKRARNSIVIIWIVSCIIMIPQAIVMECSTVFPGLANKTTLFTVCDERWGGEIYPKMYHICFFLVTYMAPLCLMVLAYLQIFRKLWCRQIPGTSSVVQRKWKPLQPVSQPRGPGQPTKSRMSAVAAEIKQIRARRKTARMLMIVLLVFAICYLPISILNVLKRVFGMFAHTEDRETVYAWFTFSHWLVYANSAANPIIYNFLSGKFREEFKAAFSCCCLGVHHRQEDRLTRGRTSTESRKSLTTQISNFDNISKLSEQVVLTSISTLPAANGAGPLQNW
# Experimental: In order to obtain cell clones that stably express human orexin type 2 receptor, human orexin type 2 (residues 1-444, NCBI Reference Sequence: AK314279) was constructed in a pcDNA3.1 (+) vector (Invitrogen) to express in mammalian cells. This plasmid DNA was transfected into CHO-K1 cells by electroporation, and stable clones were obtained by limiting dilution using resistance to G418 as a selection marker.
# CHO cells in which human OX2 receptor was forcibly expressed were seeded at 5,000 cells/well into a 384-well black transparent bottom plate (Costar) in 25 ul complete media, and were then incubated at 37° C., 5% CO2 for 1 day. The next day, 25 ul of 2× calcium 5 dye (Molecular Devices) in assay buffer (HBSS (Thermo Fisher Scientific), 20 mM HEPES (Thermo Fisher Scientific), 2.5 mM probenecid). After incubation in a 5% CO2 incubator at 37° C. for 40 minutes, it was incubated at room temperature for another 20 minutes. Add 5 μL/well of the test compound diluted with assay buffer B (HBSS, 20 mM HEPES), using FLIPR Tetra (Molecular Devices) to measure the fluorescence value every 1 second for 1 minute, and then every 2 seconds for 1 minute. It was measured for 1 minute and 40 seconds. The amount of fluorescence value when DMSO is added instead of the test compound is defined as 0%, and the amount of fluorescence value when orexin A (human) (Peptide Institute) with a final concentration of 10 nM is added is defined as 100%. The activity (%) of the test compound was calculated.
SMILES,"OX2R agonist activity (1 μM, %) [1] [%]",also measured
"CCS(=O)(=O)N[C@@H]1[C@@H]2Cc3cccc(c3F)Oc3nc(ccc3C)NCC(=O)N2CC1(F)F [Example 99, N-[(15aS,16R)-17,17,20-trifluoro-7-methyl-1-oxo-2,3,15a,16,17,18-hexahydro-1H,15H-4,8-(azeno)-14,10-(metheno)pyrrolo[1,2-j][1,7,10]oxadiazacyclo-heptadecin-16-yl]ethanesulfonamide]",97,"ring closure, yield of all isomers (from CCS(=O)(=O)N[C@@H]1[C@H](Cc2cccc(Oc3nc(NCC(=O)O)ccc3C)c2F)NCC1(F)F, amide bond, HATU / DIPEA, DMF, 1.74 mM, 25.0 °C, 12.0 h): 13.3%"
"Cc1cc(F)c2nc1Oc1cccc(c1F)C[C@H]1[C@@H](NS(=O)(=O)C(C)C)C(F)(F)CN1C(=O)NC2 [Example 109, N-[(15aS,16R)-5,17,17,20-tetrafluoro-7-methyl-1-oxo-2,3,15a,16,17,18-hexahydro-1H,15H-4,8-(azeno)-10,14-(metheno)pyrrolo[1,2-j][1,8,10]oxadiazacyclo-heptadecin-16-yl]propane-2-sulfonamide]",108,–
"CCS(=O)(=O)N[C@@H]1[C@@H]2Cc3cccc(c3F)Cc3cc(ccc3C)CNC(=O)N2CC1(F)F [Example 103, N-[(15aS,16R)-17,17,20-trifluoro-7-methyl-1-oxo-2,3,15a,16,17,18-hexahydro-1H,9H,15H-4,8:10,14-di(metheno)pyrrolo[1,2-c][1,3]diazacycloheptadecin-16-yl]ethanesulfonamide]",104,–
"CCS(=O)(=O)N[C@@H]1[C@@H]2Cc3cccc(c3F)C(F)(F)c3nc(ccc3C)CNC(=O)N2CC1(F)F [Example 100, N-[(15aS,16R)-9,9,17,17,20-pentafluoro-7-methyl-1-oxo-2,3,15a,16,17,18-hexahydro-1H,9H,15H-4,8-(azeno)-14,10-(metheno)pyrrolo[1,2-c][1,3]diazacycloheptadecin-16-yl]ethanesulfonamide]",84,"ring closure, yield of all isomers (from CCS(=O)(=O)N[C@@H]1[C@H](Cc2cccc(C(F)(F)c3nc(CN)ccc3C)c2F)NCC1(F)F, other bond, CDI/DIPEA, THF, 11.0 mM, 45.0 °C, 16.0 h): 30.8%"
"CCS(=O)(=O)N[C@@H]1[C@@H]2Cc3cccc(c3F)Cc3nc(ccc3C)O[C@@H](C)C(=O)N2CC1(F)F [Example 111, N-[(2S,15aS,16R)-17,17,20-trifluoro-2,7-dimethyl-1-oxo-1,2,15a,16,17,18-hexahydro-9H,15H-4,8-(azeno)-10,14-(metheno)pyrrolo[1,2-d][1,4]oxazacycloheptadecin-16-yl]ethanesulfonamide]",103,"ring closure, yield of all isomers (from CCS(=O)(=O)N[C@@H]1[C@H](Cc2cccc(Cc3nc(O[C@@H](C)C(=O)O)ccc3C)c2F)NCC1(F)F, amide bond, HATU/DIPEA, DMF, 2.83 mM, 25.0 °C, 16.0 h): 11.8%"
"CCS(=O)(=O)N[C@@H]1[C@@H]2Cc3cccc(c3F)Cc3nc(ccc3C)OCC(=O)N2CC1(F)F [Example 102, N-[(15aS,16R)-17,17,20-trifluoro-7-methyl-1-oxo-1,2,15a,16,17,18-hexahydro-9H,15H-4,8-(azeno)-10,14-(metheno)pyrrolo[1,2-d][1,4]oxazacycloheptadecin-16-yl]ethanesulfonamide]",94,–
"CC(C)S(=O)(=O)N[C@@H]1[C@@H]2Cc3cccc(c3F)Oc3nc(ccc3C(F)F)CNC(=O)N2CC1(F)F [Example 110, N-[(15aS,16R)-7-(difluoromethyl)-17,17,20-trifluoro-1-oxo-2,3,15a,16,17,18-hexahydro-1H,15H-4,8-(azeno)-10,14-(metheno)pyrrolo[1,2-j][1,8,10]oxadiazacyclo-heptadecin-16-yl]propane-2-sulfonamide]",108,–
"CCS(=O)(=O)N[C@@H]1[C@@H]2Cc3cccc(c3F)[C@H](C)c3nc(ccc3C)CNC(=O)N2CC1(F)F (single isomer, unassigned) [Example 106]",90,–
"CC(C)S(=O)(=O)N[C@@H]1[C@@H]2Cc3cccc(c3F)Oc3nc(ccc3Cl)CNC(=O)N2CC1(F)F [Example 108, N-[(15aS,16R)-7-chloro-17,17,20-trifluoro-1-oxo-2,3,15a,16,17,18-hexahydro-1H,15H-4,8-(azeno)-10,14-(metheno)pyrrolo[1,2-j][1,8,10]oxadiazacyclo-heptadecin-16-yl]propane-2-sulfonamide]",101,–
